In the first assay the target is T1, TLR7 (Mus musculus, UniProt P58681).
T1 construct: endogenous in cells; host or cells: Balb/c mouse bone marrow-derived macrophages, differentiated with M-CSF
T1 sequence (P58681 27-1050): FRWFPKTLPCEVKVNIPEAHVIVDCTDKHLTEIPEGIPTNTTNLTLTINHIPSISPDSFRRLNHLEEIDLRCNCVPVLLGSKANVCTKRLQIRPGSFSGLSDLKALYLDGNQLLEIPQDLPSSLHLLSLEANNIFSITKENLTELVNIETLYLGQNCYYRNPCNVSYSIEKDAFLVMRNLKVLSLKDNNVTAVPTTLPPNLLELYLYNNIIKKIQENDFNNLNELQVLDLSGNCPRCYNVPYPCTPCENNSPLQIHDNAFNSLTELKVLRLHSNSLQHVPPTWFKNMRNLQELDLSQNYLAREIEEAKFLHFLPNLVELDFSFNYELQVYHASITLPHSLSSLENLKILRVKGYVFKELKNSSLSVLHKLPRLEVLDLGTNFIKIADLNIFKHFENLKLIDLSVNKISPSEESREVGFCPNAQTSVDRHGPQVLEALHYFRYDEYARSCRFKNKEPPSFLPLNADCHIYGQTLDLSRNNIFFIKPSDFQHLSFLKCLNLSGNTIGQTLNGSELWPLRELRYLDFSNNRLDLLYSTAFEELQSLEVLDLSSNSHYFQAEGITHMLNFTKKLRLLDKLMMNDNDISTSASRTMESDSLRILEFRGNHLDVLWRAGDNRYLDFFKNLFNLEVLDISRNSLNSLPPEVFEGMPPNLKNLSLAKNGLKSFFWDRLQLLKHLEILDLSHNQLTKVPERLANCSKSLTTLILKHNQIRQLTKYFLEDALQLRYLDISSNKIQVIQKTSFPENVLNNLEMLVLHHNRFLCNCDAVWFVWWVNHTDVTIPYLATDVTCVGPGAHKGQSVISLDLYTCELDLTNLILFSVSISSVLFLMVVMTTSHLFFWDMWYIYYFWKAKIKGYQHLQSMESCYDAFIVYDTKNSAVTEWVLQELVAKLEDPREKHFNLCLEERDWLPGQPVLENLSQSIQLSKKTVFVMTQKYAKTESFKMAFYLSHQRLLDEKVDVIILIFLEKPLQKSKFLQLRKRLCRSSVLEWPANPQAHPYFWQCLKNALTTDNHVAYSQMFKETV
Put plainly: In vitro TLR7 small molecule screening: murine TNFα production by bone marrow-derived murine macrophages. The settings on record: murine TNFα by ELISA after overnight culture; 1000 to 0.06 nM; non-linear regression. Format: cell-based. Here is the method: Murine macrophages were derived from bone marrow cells from a Balb/c mouse. Briefly, murine bone marrow cells were isolated and resuspended in cDMEM media (high glucose DMEM (HyClone) supplemented with 10% fetal bovine serum (HyClone), 1 mM Sodium Pyruvate (HyClone), 2 mM L-glutamine (Gibco), 10 mM HEPES (HyClone), 1×NEAA (Gibco), 50 U/mL penicillin, 50 U/mL streptomycin (HyClone)) and seeded at 5e5 cells/mL in the presence of 20 ng/mL murine M-CSF (Peprotech) and incubated at 37° C., 5% CO2 for 7 days to differentiate into murine macrophages.
After differentiation, bone marrow-derived murine macrophages were plated in 96-well flat bottom microtiter plates (80,000/well) along with titrating concentrations of TLR7 small molecules ranging from 1000 to 0.06 nM in cRPMI media (RPMI-1640 (HyClone) supplemented with 10% fetal bovine serum (HyClone), 1 mM Sodium Pyruvate (HyClone), 2 mM L-glutamine (Gibco), 10 mM HEPES (HyClone), 1×NEAA (Gibco), 50 U/mL penicillin, 50 U/mL streptomycin (HyClone)). After overnight culture, supernatants were harvested and murine TNFα levels were determined by ELISA (BioLegend). Table 4. […] Data was analyzed using GraphPad Prism 7.01 software (GraphPad Software) and EC50 values calculated using non-linear regression. The TLR7 small molecules were active, stimulating production of murine TNFα in a dose-dependent manner from the murine macrophages. Compound A is represented by the formula: […]
For orientation: ELISA stands for enzyme-linked immunosorbent assay.
What is called EC50 is the midpoint of the concentration-response curve. A higher EC50 goes with a need for much substance. Consider `CCOCc1nc2c(NC(=O)[C@H](CCCNC(N)=O)NC(=O)[C@@H](NC(=O)OCC3c4ccccc4-c4ccccc43)C(C)C)nc3ccccc3c2n1CC(C)(C)OCCNC(=O)OC(C)(C)C` [Compound 1.8, (9H-fluoren-9-yl)methyl ((S)-1-(((S)-1-((1-(2-(2-((tert-butoxycarbonyl)amino)ethoxy)-2-methylpropyl)-2-(ethoxymethyl)-1H-imidazo[4,5-c]quinolin-4-yl)amino)-1-oxo-5-ureidopentan-2-yl)amino)-3-methyl-1-oxobutan-2-yl)carbamate], for which it took 59 nM to reach a half-maximal effect (EC50). Consider `CCOCc1nc2c(NC(=O)[C@H](C)N)nc3ccccc3c2n1CC(C)(C)OCCNC(=O)C(C)(C)NC(=O)OCc1ccccc1` [Compound 1.6, benzyl (S)-(1-((2-((1-(4-(2-aminopropanamido)-2-(ethoxymethyl)-1H-imidazo[4,5-c]quinolin-1-yl)-2-methylpropan-2-yl)oxy)ethyl)amino)-2-methyl-1-oxopropan-2-yl)carbamate], for which the EC50 was 657 nM.

Take `CCOCc1nc2c(N)nc3ccccc3c2n1CC(C)(C)OCCNC(=O)OC(C)(C)C` [Compound 1.4, tert-butyl (2-((1-(4-amino-2-(ethoxymethyl)-1H-imidazo[4,5-c]quinolin-1-yl)-2-methylpropan-2-yl)oxy)ethyl)carbamate]: it took 1.2 nM to reach a half-maximal effect (EC50). In the case of `CCOCc1nc2c(NC(=O)[C@H](C)NC(=O)C3CCCN3C(=O)OC(C)(C)C)nc3ccccc3c2n1CC(C)(C)OCCNC(=O)C(C)(C)NC(=O)OCc1ccccc1` (stereo partly drawn) [Compound 1.7, tert-butyl 2-(((S)-1-((2-(ethoxymethyl)-1-(5,5,11,11-tetramethyl-3,6-dioxo-1-phenyl-2,10-dioxa-4,7-diazadodecan-12-yl)-1H-imidazo[4,5-c]quinolin-4-yl)amino)-1-oxopropan-2-yl)carbamoyl)pyrrolidine-1-carboxylate], the concentration giving a half-maximal response (EC50) was found to be 503 nM. This EC50 lies about 420-fold higher than the previous one.

`CCOCc1nc2c(N)nc3ccccc3c2n1CC(C)(C)OCCN` [Compound A, reference compound] came in with a concentration for a half-maximal effect (EC50) of 73 nM. With `CCOCc1nc2c(NC(=O)[C@H](CCCNC(N)=O)NC(=O)[C@@H](N)C(C)C)nc3ccccc3c2n1CC(C)(C)OCCNC(=O)OC(C)(C)C` [Compound 1.5, tert-butyl (2-((1-(4-((S)-2-((S)-2-amino-3-methylbutanamido)-5-ureidopentanamido)-2-(ethoxymethyl)-1H-imidazo[4,5-c]quinolin-1-yl)-2-methylpropan-2-yl)oxy)ethyl)carbamate], a half-maximal response (EC50) required 4 nM. Take `CCOCc1nc2c(N)nc3ccccc3c2n1CC(C)(C)OCCNC(=O)C(C)(C)NC(=O)OCc1ccccc1` [Compound 1.1, benzyl (1-((2-((1-(4-amino-2-(ethoxymethyl)-1H-imidazo[4,5-c]quinolin-1-yl)-2-methylpropan-2-yl)oxy)ethyl)amino)-2-methyl-1-oxopropan-2-yl)carbamate]: the EC50 worked out at 20 nM. `CCOCc1nc2c(NC(=O)[C@H](C)NC(=O)OC(C)(C)C)nc3ccccc3c2n1CC(C)(C)OCCNC(=O)C(C)(C)NC(=O)OCc1ccccc1` [Compound 1.3, benzyl (S)-(1-((2-((1-(4-(2-((tert-butoxycarbonyl)amino)propanamido)-2-(ethoxymethyl)-1H-imidazo[4,5-c]quinolin-1-yl)-2-methylpropan-2-yl)oxy)ethyl)amino)-2-methyl-1-oxopropan-2-yl)carbamate] displayed an EC50 of 1680 nM.

In a further assay the test system is BMDM with SK-BR-3 (HER2pos). Put plainly: mTNFα from mouse bone marrow derived macrophages co-cultured with SK-BR-3 (HER2pos) cells. It counts as cell-based. The following applies: 24 hours co-culture with HER2pos SK-BR-3. Here is the method: (§1) The ability of an anti-HER2-TLR7 conjugate to specifically activate mouse macrophages when bound to tumor cells by HER2 was assessed in vitro as follows. Bone marrow cells were harvested from BALB/cJ mouse femurs and tibias using a 27-gauge needle attached to a 3 mL syringe filled with growth media (DMEM supplemented with 10% Fetal Bovine Serum, 1 mM Sodium Pyruvate, 1× GlutaMAX-1, 1× Non-Essential Amino Acids, 10 mM HEPES and 0.5% Penicillin/Streptomycin). Bone marrow cells were centrifuged, and RBC lysed before being counted and resuspended at a concentration 5×10^5/mL in growth media. Ten mL of cell suspension was placed in 10 cm dishes and 20 ng/mL murine macrophage-colony-stimulating factor (mM-CSF) was added. Cells were incubated for two days, media replaced with fresh growth media containing 20 ng/mL mM-CSF, and then cultured for a further four days. BMDM and tumor cell lines SK-BR-3 (HER2pos) or MDA-MB-468 (HER2neg) were removed from plates with Accutase cell detachment solution and counted. […] Murine TNFα (mTNFα) levels in the supernatant were determined by mTNFα ELISA Kit (BioLegend) and read on an Envision Plate Reader (Perkin Elmer, Waltham, Mass.) according to manufactures instructions. mTNFα levels were then graphed using GraphPad Prism 7.01 software (GraphPad Software, San Diego, Calif.) and EC50 values generated using non-linear regression curve fit.
With `CCOCc1nc2c(N)nc3ccccc3c2n1CC(C)(C)OCCNC(=O)C(C)(C)N` [Compound 1.2, 2-amino-N-(2-((1-(4-amino-2-(ethoxymethyl)-1H-imidazo[4,5-c]quinolin-1-yl)-2-methylpropan-2-yl)oxy)ethyl)-2-methylpropanamide], the “activation of mouse bone marrow cells (mTNFα)” value is reported as “potently activating”.

The test system of the next assay is BMDM with MDA-MB-468 (HER2neg). Put plainly: mTNFα from mouse bone marrow derived macrophages co-cultured with MDA-MB-468 (HER2neg) cells. It counts as cell-based. The settings on record: 24 hours co-culture with HER2neg MDA-MB-468. Here is the method: as §1
With `CCOCc1nc2c(N)nc3ccccc3c2n1CC(C)(C)OCCNC(=O)C(C)(C)N` [Compound 1.2, 2-amino-N-(2-((1-(4-amino-2-(ethoxymethyl)-1H-imidazo[4,5-c]quinolin-1-yl)-2-methylpropan-2-yl)oxy)ethyl)-2-methylpropanamide], the “activation of mouse bone marrow cells (mTNFα)” value is reported as “potently activating”.

These data come from patent publication US20220323596A1, “ANTIBODY CONJUGATES OF TOLL-LIKE RECEPTOR AGONISTS” (SILVERBACK THERAPEUTICS, INC., priority 2018, published 2022).
